PubChem BioAssay (NCI)
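These data come from cells grown in 96-well plates and exposed to compound for 48 hours at five concentrations. GI50 is the concentration that inhibits growth by half. TGI marks complete inhibition of growth.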

Legend:
Test in all cases: NCI tumour cell line growth inhibition, 48 h
LXFL 529 NSCLC = test system: LXFL 529 NSCLC
DMS 273 small cell lung = test system: DMS 273 small cell lung
HOP-18 NSCLC = test system: HOP-18 NSCLC
DMS 114 small cell lung = test system: DMS 114 small cell lung
XF 498 CNS = test system: XF 498 CNS
KM20L2 colon = test system: KM20L2 colon
M19-MEL melanoma = test system: M19-MEL melanoma
P388 leukemia = test system: P388 leukemia
P388/ADR leukemia = test system: P388/ADR leukemia
SN12K1 renal = test system: SN12K1 renal
RXF-631 renal = test system: RXF-631 renal

Work on OC12CCC3(OC4CCCCO4)c4ccccc4C3C1c1ccccc12 (stereo unspecified) yielded a TGI (LXFL 529 NSCLC) of over 100 µM, a TGI (DMS 273 small cell lung) of over 100 µM and a TGI (HOP-18 NSCLC) of over 100 µM. It also gave a TGI (DMS 114 small cell lung) of over 100 µM, a TGI (XF 498 CNS) of over 100 µM and a TGI (KM20L2 colon) of over 100 µM. For the same molecule, the TGI (M19-MEL melanoma) was over 100 µM.

Oc1c(Br)cc2c(c1Br)-c1c(c(O)c3c4c1=NCCC=4C=N3)NCC2 was tested, and the TGI (DMS 273 small cell lung) was 27.7 µM, the TGI (HOP-18 NSCLC) was 35.6 µM and the TGI (P388 leukemia) was over 22.2 µM. The TGI (DMS 114 small cell lung) was 9.76 µM, the TGI (XF 498 CNS) was 27.2 µM and the TGI (KM20L2 colon) was 18.7 µM. For the same molecule, the TGI (P388/ADR leukemia) was 43.2 µM, the TGI (SN12K1 renal) was 17.4 µM and the TGI (M19-MEL melanoma) was 8.82 µM.

Brc1ccc2[nH]c3c(C4=NCCC4)nccc3c2c1 showed a TGI (DMS 273 small cell lung) of over 76 µM, a TGI (HOP-18 NSCLC) of over 85.8 µM and a TGI (P388 leukemia) of over 21.7 µM. For the same molecule, the TGI (DMS 114 small cell lung) was over 57.8 µM, the TGI (XF 498 CNS) was over 72.2 µM and the TGI (KM20L2 colon) was 23.3 µM. It also gave a TGI (P388/ADR leukemia) of over 23.8 µM, a TGI (SN12K1 renal) of over 25.7 µM and a TGI (M19-MEL melanoma) of 84.4 µM.

Molecule [CH3][Sn]([CH3])([CH3])[S]C(=S)N1CCOCC1 has a GI50 (DMS 273 small cell lung) of 0.508 µM, a TGI (DMS 273 small cell lung) of 6.13 µM and a GI50 (HOP-18 NSCLC) of 3.85 µM. For the same molecule, the TGI (HOP-18 NSCLC) was over 100 µM, the GI50 (P388 leukemia) was 0.082 µM and the TGI (P388 leukemia) was 0.389 µM. For the same molecule, the GI50 (DMS 114 small cell lung) was 0.772 µM, the TGI (DMS 114 small cell lung) was 3.72 µM and the GI50 (XF 498 CNS) was 0.643 µM. For the same molecule, the TGI (XF 498 CNS) was 5.97 µM, the GI50 (KM20L2 colon) was 0.789 µM and the TGI (KM20L2 colon) was 8.2 µM. It also gave a GI50 (P388/ADR leukemia) of 0.136 µM, a TGI (P388/ADR leukemia) of 0.902 µM and a GI50 (SN12K1 renal) of 1.12 µM. For the same molecule, the TGI (SN12K1 renal) was 12.1 µM, the GI50 (M19-MEL melanoma) was 0.73 µM and the TGI (M19-MEL melanoma) was 31.7 µM.

In the case of C/C(=C\C(=O)Nc1ccc2n[nH]nc2c1)Nc1ccc2n[nH]nc2c1, the TGI (LXFL 529 NSCLC) was over 100 µM, the TGI (HOP-18 NSCLC) was over 100 µM and the TGI (DMS 114 small cell lung) was over 100 µM. It also gave a TGI (KM20L2 colon) of over 100 µM, a TGI (M19-MEL melanoma) of over 100 µM and a TGI (RXF-631 renal) of over 100 µM.

Molecule Nc1cccc(-c2cc(=O)c3cc4c(cc3[nH]2)OCO4)c1 has a TGI (LXFL 529 NSCLC) of over 100 µM, a TGI (DMS 273 small cell lung) of 3.83 µM and a TGI (HOP-18 NSCLC) of over 100 µM. For the same molecule, the TGI (XF 498 CNS) was over 100 µM and the TGI (M19-MEL melanoma) was over 100 µM.

For Nc1nc(Cl)c2ncn(CCCC(c3ccccc3)P(=O)(O)O)c2n1 (stereo unspecified), the TGI (LXFL 529 NSCLC) was over 100 µM, the TGI (DMS 273 small cell lung) was over 100 µM and the TGI (HOP-18 NSCLC) was over 100 µM. The TGI (DMS 114 small cell lung) was over 100 µM, the TGI (KM20L2 colon) was over 100 µM and the TGI (M19-MEL melanoma) was over 100 µM.

For Cc1c2cc[n+](Cc3ccc(I)cc3)cc2c(C)c2c1[nH]c1ccccc12, the TGI (DMS 273 small cell lung) was 6.17 µM, the TGI (HOP-18 NSCLC) was over 13.2 µM and the TGI (P388 leukemia) was 0.558 µM. It also gave a TGI (DMS 114 small cell lung) of 2.63 µM, a TGI (XF 498 CNS) of 1.17 µM and a TGI (KM20L2 colon) of over 15.4 µM. For the same molecule, the TGI (P388/ADR leukemia) was over 25 µM, the TGI (SN12K1 renal) was 5.92 µM and the TGI (M19-MEL melanoma) was 1.49 µM.

Work on Cc1ccc(C)c2c1C1CCCCC3(OCCCO3)C21O (stereo unspecified) yielded a TGI (LXFL 529 NSCLC) of over 100 µM, a TGI (DMS 273 small cell lung) of over 100 µM and a TGI (HOP-18 NSCLC) of over 100 µM. It also gave a TGI (DMS 114 small cell lung) of over 100 µM, a TGI (KM20L2 colon) of over 100 µM and a TGI (M19-MEL melanoma) of over 100 µM.

Nc1nc(SCc2ccccc2Cl)c2ncn(C3OC(CO)C(O)C3O)c2n1 (stereo unspecified) gave a TGI (LXFL 529 NSCLC) of over 100 µM, a TGI (DMS 273 small cell lung) of over 100 µM and a TGI (HOP-18 NSCLC) of over 100 µM. It also gave a TGI (DMS 114 small cell lung) of over 100 µM, a TGI (KM20L2 colon) of over 100 µM and a TGI (M19-MEL melanoma) of over 100 µM.

In the case of CNC(=S)N/N=C/C(C)=N/NC(=S)NC, the TGI (DMS 273 small cell lung) was over 100 µM, the TGI (HOP-18 NSCLC) was over 100 µM and the TGI (DMS 114 small cell lung) was over 100 µM. It also gave a TGI (KM20L2 colon) of over 100 µM and a TGI (M19-MEL melanoma) of over 100 µM.
